Experimental data: patent US10596172B2 (Celgene CAR LLC, priority 2008, dated 2020)
Like-named read-outs stand apart in the source and are kept apart here.

System: B cell lymphoma cell lines
Experiment: B cell lymphoma proliferation assay
Type: cell-based
[1] = Homo sapiens, DOHH-2, DOHH2 B cell lymphoma cell line, read-out: EC50 (μM) DOHH2
[2] = Homo sapiens, WSUDLCL2, WSU-DLCL2 B cell lymphoma cell line, read-out: EC50 (μM) WSU-DLCL2
[3] = DHL4 B cell lymphoma cell line, read-out: EC50 (μM) DHL4

Structure (SMILES): C=CC(=O)Nc1cccc(Nc2nc(Nc3ccc(OC(C)C)nc3)ncc2F)c1 [Compound I-172, N-(3-(5-fluoro-2-(6-isopropoxypyridin-3-ylamino)pyrimidin-4-ylamino)phenyl)acrylamide]
- EC50 [1]: 1 to 10 µM

Structure (SMILES): C=CC(=O)Nc1cccc(Oc2nc(Nc3ccc(OC)nc3)ncc2C(=O)Nc2ccccc2)c1 [Compound I-159, 4-(3-acrylamidophenoxy)-2-(6-methoxypyridin-3-ylamino)-pyrimidine-5-carboxylic acid phenylamide]
- EC50 [1]: 1 to 10 µM

Structure (SMILES): C=CC(=O)Nc1cccc(Oc2nc(Nc3ccc(OC)nc3)ncc2C(C)=O)c1 [Compound I-188, N-{3-[5-Acetyl-2-(6-methoxy-pyridin-3-ylamino)-pyrimidin-4-yloxy]-phenyl}-acrylamide]
- EC50 [1]: 1 to 10 µM

Structure (SMILES): C=CC(=O)Nc1cccc(Nc2nc(Nc3cccc(OCCN(CC)CC)c3)ncc2F)c1 [Compound I-298]
- EC50 [2]: 1 to 10 µM

Structure (SMILES): C=CC(=O)Nc1cccc(Nc2nc(Nc3cccc(OCCO)c3)ncc2F)c1 [Compound I-105, N-(3-(5-fluoro-2-(3-(2-hydroxyethoxy)phenylamino)pyrimidin-4-ylamino)phenyl)acrylamide]
- EC50 [1]: 0.1 to 1 µM
- EC50 [2]: 1 to 10 µM

Structure (SMILES): C=CC(=O)N1CCOc2ccc(Nc3nc(Nc4ccc(OC)nc4)ncc3F)cc21 [Compound I-194, 1-(6-(5-fluoro-2-(6-methoxypyridin-3-ylamino)pyrimidin-4-ylamino)-2H-benzo[b][1,4]oxazin-4(3H)-yl)prop-2-en-1-one]
- EC50 [3]: 1 to 10 µM
- EC50 [1]: 1 to 10 µM
- EC50 [2]: 1 to 10 µM

Structure (SMILES): C=CC(=O)Nc1cccc(Nc2nc(Nc3ccccc3)ncc2C#N)c1 [Compound I-157, N-(3-(5-cyano-2-(phenylamino)pyrimidin-4-ylamino)phenyl)acrylamide]
- EC50 [3]: 1 to 10 µM
- EC50 [1]: 1 to 10 µM
- EC50 [2]: 1 to 10 µM

Structure (SMILES): C=CC(=O)N1CCOc2ccc(Nc3nc(Nc4ccc(N(C)C(=O)C(F)(F)F)nc4)ncc3C(C)=O)cc21 [Compound I-142, N-(5-(5-acetyl-4-(4-acryloyl-3,4-dihydro-2H-benzo[b][1,4]oxazin-6-ylamino)pyrimidin-2-ylamino)pyridin-2-yl)-2,2,2-trifluoro-N-methylacetamide]
- EC50 [1]: 1 to 10 µM

Structure (SMILES): C=CC(=O)Nc1cc(Nc2nc(Nc3ccc(OCCOC)cc3)ncc2F)ccc1F [Compound I-87, N-(2-fluoro-5-(5-fluoro-2-(4-(2-methoxyethoxy)phenylamino)pyrimidin-4-ylamino)phenyl)acrylamide]
- EC50 [1]: 1 to 10 µM

Structure (SMILES): C=CC(=O)N1Cc2ccc(Nc3nc(Nc4cccc(OC)c4)ncc3C(F)(F)F)cc2C1 [Compound I-132, 1-(5-(5-trifluoromethyl-2-(3-methoxyphenylamino)pyrimidin-4-yl)amino-1,3-dihydroisoindol-2-yl)2-propen-1-one]
- EC50 [3]: 1 to 10 µM
- EC50 [1]: 1 to 10 µM

Structure (SMILES): C=CC(=O)Nc1cccc(Nc2nc(Nc3ccc4[nH]ncc4c3)ncc2F)c1 [Compound I-156]
- EC50 [3]: 1 to 10 µM
- EC50 [1]: 0.1 to 1 µM
- EC50 [2]: 1 to 10 µM

Structure (SMILES): C=CC(=O)Nc1cccc(Nc2nc(Nc3ccc4c(c3)NCCO4)ncc2F)c1 [Compound I-174]
- EC50 [1]: 1 to 10 µM

Structure (SMILES): C=CC(=O)Nc1cccc(Nc2nc(Nc3cccc(OCCCN4CCOCC4)c3)ncc2F)c1 [Compound I-208, N-(3-(5-fluoro-2-(3-(3-morpholinopropoxy)phenylamino)pyrimidin-4-ylamino)phenyl)acrylamide]
- EC50 [1]: 1 to 10 µM
- EC50 [2]: 1 to 10 µM

Structure (SMILES): C=CC(=O)Nc1cccc(Nc2nc(Nc3cccc(S(N)(=O)=O)c3)ncc2F)c1 [Compound I-160, N-(3-(5-fluoro-2-(3-sulfamoylphenylamino)pyrimidin-4-ylamino)phenyl)acrylamide]
- EC50 [3]: 1 to 10 µM
- EC50 [1]: 1 to 10 µM
- EC50 [2]: 1 to 10 µM

Structure (SMILES): C=CC(=O)Nc1cccc(Oc2nc(Nc3ccc(OC)nc3)ncc2C)c1 [Compound I-186, N-(3-(2-(6-methoxypyridin-3-ylamino)-5-methylpyrimidin-4-yloxy)phenyl)acrylamide]
- EC50 [3]: 1 to 10 µM
- EC50 [1]: 1 to 10 µM
